From PubChem BioAssay AID1745844 (Carcinogenic Potency Database (CPDB), 2022)
Activity calls are given as the source filed them. How the calls were made is not given here.

Tested on: rodent lifetime carcinogenesis bioassay, tumor incidence TD50
Assay: chronic cancer bioassays in animals – CPDB, compiled studies (AID 1745844)
Details: for TD50: in feed; for carcinogen call: strain Wistar, by gavage, dosed 30 weeks, study length 87 weeks

CN(C)c1ccc(Cc2ccc(N(C)C)cc2)cc1
TD50 (mouse, strain B6C3F1, females, site: any site (literature study), lesion: several types, types named in the paper, dosed 78 weeks, study length 91 weeks): 280 mg/kg/day
TD50 (mouse, strain B6C3F1, females, site: liver, lesion: hepatocellular adenoma + hepatocellular carcinoma + neoplastic nodule, dosed 78 weeks, study length 91 weeks): 207 mg/kg/day
TD50 (mouse, strain B6C3F1, females, site: liver, lesion: hepatocellular adenoma + hepatocellular carcinoma, dosed 78 weeks, study length 91 weeks): 207 mg/kg/day
TD50 (mouse, strain B6C3F1, females, site: lung, lesion: alveolar/bronchiolar adenoma + alveolar/bronchiolar carcinoma, dosed 78 weeks, study length 91 weeks): 1080 mg/kg/day
TD50 (mouse, strain B6C3F1, males, site: any site (literature study), lesion: several types, types named in the paper, dosed 78 weeks, study length 91 weeks): 367 mg/kg/day (inactive)
TD50 (mouse, strain B6C3F1, males, site: liver, lesion: hepatocellular adenoma + hepatocellular carcinoma + neoplastic nodule, dosed 78 weeks, study length 91 weeks): 558 mg/kg/day
TD50 (mouse, strain B6C3F1, males, site: lung, lesion: alveolar/bronchiolar adenoma + alveolar/bronchiolar carcinoma, dosed 78 weeks, study length 91 weeks): 1410 mg/kg/day
TD50 (rat, strain Fischer 344, females, site: any site (literature study), lesion: several types, types named in the paper, dosed 59 weeks, study length 104 weeks): 41.7 mg/kg/day
TD50 (rat, strain Fischer 344, females, site: liver, lesion: hepatocellular adenoma + hepatocellular carcinoma + neoplastic nodule, dosed 59 weeks, study length 104 weeks): 203 mg/kg/day
TD50 (rat, strain Fischer 344, females, site: liver, lesion: neoplastic nodule, dosed 59 weeks, study length 104 weeks): 203 mg/kg/day
TD50 (rat, strain Fischer 344, females, site: thyroid gland, lesion: follicular-cell adenoma + follicular-cell carcinoma, dosed 59 weeks, study length 104 weeks): 16.4 mg/kg/day
TD50 (rat, strain Fischer 344, females, site: thyroid gland, lesion: follicular-cell carcinoma, dosed 59 weeks, study length 104 weeks): 27.7 mg/kg/day
TD50 (rat, strain Fischer 344, males, site: any site (literature study), lesion: several types, types named in the paper, dosed 59 weeks, study length 104 weeks): 42.9 mg/kg/day
TD50 (rat, strain Fischer 344, males, site: thyroid gland, lesion: follicular-cell adenoma + follicular-cell carcinoma, dosed 59 weeks, study length 104 weeks): 16.5 mg/kg/day
TD50 (rat, strain Fischer 344, males, site: thyroid gland, lesion: follicular-cell carcinoma, dosed 59 weeks, study length 104 weeks): 28.6 mg/kg/day

CC(=O)NCc1nc(-c2ccc([N+](=O)[O-])o2)no1
TD50 (rat, strain Sprague-Dawley, females, site: any site (literature study), lesion: several types, types named in the paper, dosed 46 weeks, study length 66 weeks): 5.2 mg/kg/day
TD50 (rat, strain Sprague-Dawley, females, site: kidney/pelvis, lesion: transitional-cell carcinoma, dosed 46 weeks, study length 66 weeks): 59.6 mg/kg/day
TD50 (rat, strain Sprague-Dawley, females, site: lung, lesion: alveolar-cell carcinoma, dosed 46 weeks, study length 66 weeks): 59.6 mg/kg/day
TD50 (rat, strain Sprague-Dawley, females, site: mammary gland, lesion: adenocarcinoma, dosed 46 weeks, study length 66 weeks): 10.3 mg/kg/day
TD50 (rat, strain Sprague-Dawley, females, site: mammary gland, lesion: several types, types named in the paper, dosed 46 weeks, study length 66 weeks): 6.35 mg/kg/day

CCCCC/C=C\C/C=C\CCCCCCCC(=O)OC
carcinogen call (rat, males, site: gastrointestinal tract, lesion: several types, types named in the paper): negative (inactive)
carcinogen call (rat, males, site: liver, lesion: one or several types, types not named): negative (inactive)
